Columns and labels:
C57BL/6 mice = assay: Formation of lesions of the granulomatous type after subcutaneous injection in mice; format: in vivo, mouse; conditions: s.c., adsorbed onto Alu-Gel-S
NKT cells = assay: NKT-cell recruitment at the site of injection, Vα14-Jα281 mRNA by RT-PCR and Immunoscope; format: in vivo, mouse; conditions: C57BL/6 mice, s.c., adsorbed on Alu-Gel-S, day 7, RT-PCR, compared with Alu-Gel-S alone

With `CC(=O)N[C@H]1C(O)O[C@H](CO)[C@@H](O)[C@@H]1O[C@H](C)C(=O)N[C@@H](C)C(=O)N[C@H](CCC(=O)O)C(N)=O` (mixture of isomers) [MDP, muramyl-dipeptide] the “cell infiltrate at site of injection” value (C57BL/6 mice) was “produced a cellular infiltrate” and the “activity of NKT-cell recruitment (Vα14-Jα281 mRNA)” value (NKT cells) was “without increasing the Vα14-Jα281 mRNA”.
